Experiment: xn = mol fraction of the nth substance listed

ClCCCCCCCl + Cc1cc(C)cc(C)c1
viscosity [mPa·s], 101 kPa
Conditions	x1 = 0.1049	x1 = 0.2004	x1 = 0.2961	x1 = 0.4028	x1 = 0.4994	x1 = 0.5986	x1 = 0.7	x1 = 0.7998	x1 = 0.9005
308.15 K	0.645	0.714	0.798	0.896	0.995	1.106	1.221	1.352	1.488
313.15 K	0.615	0.678	0.752	0.842	0.929	1.031	1.137	1.264	1.394
318.15 K	0.586	0.651	0.709	0.795	0.877	0.972	1.071	1.182	1.289

CCCCC/C=C\C/C=C\CCCCCCCC(=O)OCC(COC(=O)CCCCCCC/C=C\C/C=C\CCCCC)OC(=O)CCCCCCC/C=C\C/C=C\CCCCC + Cc1ccc(C)cc1
viscosity [mPa·s], 101.3 kPa
Conditions	x1 = 0.000712	x1 = 0.001435	x1 = 0.00217	x1 = 0.002914	x1 = 0.003771	x1 = 0.004524	x1 = 0.005322	x1 = 0.006113
298.15 K	0.6159	0.6268	0.638	0.6494	0.6627	0.6742	0.6861	0.6966
303.15 K	0.5801	0.5903	0.6008	0.6115	0.6238	0.6346	0.6455	0.6549
308.15 K	0.5474	0.557	0.5668	0.5769	0.5885	0.5985	0.6085	0.617
313.15 K	0.5174	0.5265	0.5358	0.5453	0.5561	0.5654	0.5747	0.5824
318.15 K	0.49	0.4986	0.5074	0.5163	0.5265	0.5352	0.5437	0.5507

ClCCCCCCCl + Cc1ccc(C)cc1
viscosity [mPa·s], 101 kPa
Conditions	x1 = 0.08955	x1 = 0.1825	x1 = 0.2818	x1 = 0.3684	x1 = 0.4454	x1 = 0.5735	x1 = 0.6793	x1 = 0.7843	x1 = 0.8888
308.15 K	0.586	0.645	0.722	0.802	0.878	1.027	1.154	1.307	1.45
313.15 K	0.558	0.621	0.686	0.756	0.83	0.972	1.095	1.242	1.378
318.15 K	0.534	0.595	0.653	0.714	0.78	0.899	1.014	1.134	1.267

Reference: the CheMixHub viscosity set
